Data as given in US12636316B2, “Pharmaceutical composition for preventing or treating myositis, comprising isolated mitochondria as active ingredient” (PAEAN BIOTECHNOLOGY INC., priority 2019, dated 2026).

Assay: Membrane potential of mitochondria (JC-1 dye)
Format: biochemical
Conditions: 5 μg mitochondria mixed in 50 μL CCCP, room temperature 10 minutes, JC-1 2 μM
Method: In order to measure the membrane potential of the mitochondria isolated in Preparation Example 1, the mitochondrial protein concentration of the isolated mitochondria was quantified through the BCA to prepare 5 μg of mitochondria. The membrane potential of the mitochondria was measured using a JC-1 (molecular probes, cat no.1743159) dye.
Specifically, as an experimental group, 5 μg of the prepared mitochondria was mixed in 50 μL of PBS and then dispensed in a 96-well plate. In addition, as a control group, 50 μL of PBS without mitochondria was dispensed in a 96-well plate. In addition, as an additional experimental group, 5 μg of mitochondria was mixed in 50 μL of CCCP (R&D systems, CAS 555-60-2), then reacted at room temperature for 10 minutes, and then dispensed in a 96-well plate. In this case, CCCP is an ion transporter of mitochondria and depolarizes the membrane potential of mitochondria, thereby inhibiting the function of mitochondria.
Thereafter, each well was treated and reacted with the JC-1 dye so that the concentration was 2 μM, and then the absorbance was measured using a fluorescence microplate reader. […] The membrane potential of mitochondria was analyzed by calculating the ratio of […].

SMILES: N#CC(C#N)=NNc1cccc(Cl)c1 [CCCP]
- membrane potential activity: low membrane potential activity
